Experimental data from patent US9872861B2, “Methods of treatment using selective Bcl-2 inhibitors” (AbbVie Inc., priority 2010, dated 2018).
Like-named read-outs stand apart in the source and are kept apart here. Marks after values point to notes of the source that are not given here.

Assays:
[1] = tested on: RS4;11 cells; assay: Cellular efficacy in Bcl-2 dependent tumor cell line RS4;11; format: cell-based, human; conditions: Homo sapiens, RS4-11; 10% HS
[2] = tested on: FL5.12-Bcl-XL cells; assay: Cellular efficacy in FL5.12 cells dependent on Bcl-XL; format: cell-based, murine; conditions: Mus musculus, 3% FBS
[3] = tested on: peripheral blood immune cells; assay: Peripheral blood lymphocytes in C57BL/6 mice, Cell Dyn hematology analyzer; format: in vivo; conditions: for inhibition in vivo at 100 mg/kg: Mus musculus, Lymphocyte
Protocol: The effect of the Bcl-2 selective/Bcl-XL sparing compounds on peripheral blood immune cells was also evaluated in C57BL/6 mice. Mice were treated four days with individual compounds (100 mg/kg, orally every day) and cell numbers were measured with a Cell Dyn hematology analyzer.

[4] = biological target: Bcl-XL (Homo sapiens, UniProt Q07817); assay: TR FRET competitive binding affinity, Bcl-XL; conditions: read-out: Target Affinity TR FRET, Bcl-XL
Protocol: (§1) A comparison of the binding affinity for each of the compounds was performed to determine target affinity, as measured by Time-Resolved Fluorescence Resonance Energy Transfer (TR FRET).

[5] = tested on: H146 cells; assay: Cellular efficacy in Bcl-XL dependent tumor cell line H146; format: cell-based; conditions: Homo sapiens, NCI-H146; 10% HS
[6] = tested on: FL5.12-Bcl-2 cells; assay: Cellular efficacy in FL5.12 cells dependent on Bcl-2; format: cell-based, murine; conditions: Mus musculus, 3% FBS
[7] = biological target: Bcl-2 (Homo sapiens, UniProt P10415); assay: TR FRET competitive binding affinity, Bcl-2; conditions: read-out: Target Affinity TR FRET, Bcl-2
Protocol: as §1

[8] = biological target: Mcl-1 (Homo sapiens, UniProt Q07820); assay: TR FRET competitive binding affinity, Mcl-1; conditions: read-out: Target Affinity TR FRET, Mcl-1
Protocol: as §1

[9] = tested on: spontaneous (NZB×NZW)F1 murine model of lupus; assay: Spontaneous (NZB×NZW)F1 murine model of lupus: proteinuria, survival, lymphopenia; format: in vivo, (NZB×NZW)F1 mice; conditions: Week 47, 100 mg/kg daily oral
Excerpt: (See Liu, K. and C. Mohan, What do mouse models teach us about human SLE? Clin Immunol, 2006. 119(2): p. 123-30) This model has been well-characterized with respect to the patho-physiological changes analogous to those of human SLE. […] Renal histopathological changes include severe glomerulonephritis, mesangial and peripheral proliferative changes, capillary membrane thickening, tubular atrophy, and infiltration of lymphocytes and monocytes/macrophages as in the majority of human SLE patients. These changes result in disruption of kidney function as evidenced by severe proteinuria (PU) greater than 300 mg/dL as measured by albumin sticks, followed by mortality as measured by survival. […] (See Gelfand, M. C. and A. D. Steinberg, Therapeutic studies in NZB-W mice. II. Relative efficacy of azathioprine, cyclophosphamide and methylprednisolone. Arthritis Rheum, 1972. 15(3): p. 247-52; and Ramos, M. A., et al., Modulation of autoantibody production by mycophenolate mofetil: effects on the development of SLE in (NZB×NZW)F1 mice. Nephrol Dial Transplant, 2003. 18(5): p. 878-83)
(NZB×NZW)F1 females were purchased from The Jackson Laboratory (Bar Harbor, Me., USA) and maintained in a conventional animal housing facility throughout the experiment. […] Proteinuria (PU) and survival were monitored weekly, followed by biweekly measurement of lymphocyte and platelet counts, and anti-ds DNA production. PK parameters were also measured throughout the study. Impact on IgG deposition and renal pathology were assessed at the conclusion of the study. Severe PU was defined by two consecutive weekly measurements of PU 300 mg/dl using Albustix test strips (VWR). When mice became moribund, they were sacrificed according to Institutional Animal Care and Use Committee protocols. PU and survival data were presented as Kaplan-Meyer survival curves using Graphpad Prism software and group differences were considered significant at the level of p<0.05. Histologic scores were analyzed using ANOVA analysis. Anti-ds DNA were analyzed using one-way ANOVA analysis and Tukey post-test.

[10] = tested on: IFNα-induced (NZB×NZW)F1 lupus model; assay: IFNα-induced (NZB×NZW)F1 lupus model: proteinuria, survival, lymphopenia; format: in vivo, (NZB×NZW)F1 mice; conditions: 100 mg/kg/day orally
Protocol: Treatment was initiated in a late-prophylactic mode (7 days after IFNα adenovirus). […] All treatment groups were administered treatment 7 days after adenovirus injection. Following adenovirus injection, mice were monitored weekly for proteinuria (PU) using Albustix test strips (VWR). Severe PU was defined by consecutive weekly measurements of PU≧300 mg/dl. When mice became moribund, they were sacrificed according to Institutional Animal Care and Use Committee protocols.

[11] = 24 h, 1 oral dose of 100 mg/kg, read-out: Day 1 % Reduction vs. Vehicle
[12] = 96 h, 4 oral doses of 100 mg/kg, read-out: Day 4 % Reduction vs. Vehicle

Chain of Bcl-2 (P10415 whole entry): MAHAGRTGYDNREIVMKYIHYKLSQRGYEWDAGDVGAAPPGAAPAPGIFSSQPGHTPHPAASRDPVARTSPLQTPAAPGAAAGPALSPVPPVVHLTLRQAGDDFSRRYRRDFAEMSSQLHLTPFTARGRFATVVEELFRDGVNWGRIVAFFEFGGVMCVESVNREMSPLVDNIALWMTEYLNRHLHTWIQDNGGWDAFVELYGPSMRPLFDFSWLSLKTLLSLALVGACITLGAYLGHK
Chain of Bcl-XL (Q07817 whole entry): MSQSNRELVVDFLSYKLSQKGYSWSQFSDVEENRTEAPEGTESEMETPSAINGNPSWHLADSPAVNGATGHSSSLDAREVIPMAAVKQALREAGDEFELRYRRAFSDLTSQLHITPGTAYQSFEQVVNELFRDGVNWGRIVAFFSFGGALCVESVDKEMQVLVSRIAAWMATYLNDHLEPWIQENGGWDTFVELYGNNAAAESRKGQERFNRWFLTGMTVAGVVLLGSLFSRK
Chain of Mcl-1 (Q07820 whole entry): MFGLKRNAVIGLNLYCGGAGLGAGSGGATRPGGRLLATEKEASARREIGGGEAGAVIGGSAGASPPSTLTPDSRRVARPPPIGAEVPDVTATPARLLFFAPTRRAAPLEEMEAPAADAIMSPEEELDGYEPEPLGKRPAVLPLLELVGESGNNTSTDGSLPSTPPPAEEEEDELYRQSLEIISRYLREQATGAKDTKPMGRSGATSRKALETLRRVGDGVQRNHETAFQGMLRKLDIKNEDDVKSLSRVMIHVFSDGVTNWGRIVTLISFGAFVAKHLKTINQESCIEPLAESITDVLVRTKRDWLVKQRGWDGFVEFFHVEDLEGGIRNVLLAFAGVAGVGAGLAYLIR

CC1(C)CCC(CN2CCN(c3ccc(C(=O)NS(=O)(=O)c4ccc(N[C@H]5CC[C@H](N6CCOCC6)CC5)c([N+](=O)[O-])c4)c(Oc4cnc5[nH]ccc5c4)c3)CC2)=C(c2ccc(Cl)cc2)C1 [Compound 4, Trans-4-(4-{[2-(4-chlorophenyl)-4,4-dimethylcyclohex-1-en-1-yl]methyl}piperazin-1-yl)-N-({4-[(4-morpholin-4-ylcyclohexyl)amino]-3-nitrophenyl}sulfonyl)-2-(1H-pyrrolo[2,3-b]pyridin-5-yloxy)benzamide]
EC50 [1]: 32 nM
EC50 [2]: 70 nM
Day 1 Lymphocytes ([3]; 1 oral dose of 100 mg/kg): 2.62 ×10^6
Day 4 lymphocytes ([3]; 4 oral doses of 100 mg/kg): 1.72 ×10^6
inhibition in vivo at 100 mg/kg [3, 11]: 57%
inhibition in vivo at 100 mg/kg [3, 12]: 73%
Ki [4]: 7.2 nM
EC50 [5]: > 5000 nM
EC50 [6]: 1.2 nM

CC1(C)CCC(CN2CCN(c3ccc(C(=O)NS(=O)(=O)c4ccc(NC[C@H]5CN(C6CC6)CCO5)c([N+](=O)[O-])c4)c(Oc4cnc5[nH]ccc5c4)c3)CC2)=C(c2ccc(Cl)cc2)C1 [Compound 7, 4-(4-{[2-(4-chlorophenyl)-4,4-dimethylcyclohex-1-en-1-yl]methyl}piperazin-1-yl)-N-{[4-({[(2S)-4-cyclopropylmorpholin-2-yl]methyl}amino)-3-nitrophenyl]sulfonyl}-2-(1H-pyrrolo[2,3-b]pyridin-5-yloxy)benzamide]
EC50 [1]: 2.7 nM
Day 1 Lymphocytes ([3]; 1 oral dose of 100 mg/kg): 0.89 ×10^6
Day 4 lymphocytes ([3]; 4 oral doses of 100 mg/kg): 0.95 ×10^6
inhibition in vivo at 100 mg/kg [3, 11]: 85%
inhibition in vivo at 100 mg/kg [3, 12]: 85%
Ki [4]: 9.4 nM
EC50 [5]: 926 nM

CC1(C)CCC(CN2CCN(c3ccc(C(=O)NS(=O)(=O)c4cnc(OC[C@H]5CC[C@H](O)CC5)c(Cl)c4)c(Oc4cc(F)cc5[nH]ncc45)c3)CC2)=C(c2ccc(Cl)cc2)C1 [Compound 14, N-({5-chloro-6-[(trans-4-hydroxycyclohexyl)methoxy]pyridin-3-yl}sulfonyl)-4-(4-{[2-(4-chlorophenyl)-4,4-dimethylcyclohex-1-en-1-yl]methyl}piperazin-1-yl)-2-[(6-fluoro-1H-indazol-4-yl)oxy]benzamide]
Ki [7]: < 0.01 nM
EC50 [1]: 22 nM
Day 1 Lymphocytes ([3]; 1 oral dose of 100 mg/kg): 3.02 ×10^6
Day 4 lymphocytes ([3]; 4 oral doses of 100 mg/kg): 2.33 ×10^6
inhibition in vivo at 100 mg/kg [3, 11]: 54%
inhibition in vivo at 100 mg/kg [3, 12]: 73%
Ki [4]: 20 nM
EC50 [5]: 3540 nM

CN1CCN(Nc2ccc(S(=O)(=O)NC(=O)c3ccc(N4CCN(CC5=C(c6ccc(Cl)cc6)CC(C)(C)CC5)CC4)cc3Oc3cnc4[nH]ccc4c3)cc2[N+](=O)[O-])CC1 [Compound 10, 4-(4-{[2-(4-chlorophenyl)-4,4-dimethylcyclohex-1-en-1-yl]methyl}piperazin-1-yl)-N-({4-[(4-methylpiperazin-1-yl)amino]-3-nitrophenyl}sulfonyl)-2-(1H-pyrrolo[2,3-b]pyridin-5-yloxy)benzamide]
EC50 [1]: 31 nM
Ki [8]: > 440 nM
EC50 [2]: 273 nM
Day 1 Lymphocytes ([3]; 1 oral dose of 100 mg/kg): 2.25 ×10^6
Day 4 lymphocytes ([3]; 4 oral doses of 100 mg/kg): 2.48 ×10^6
inhibition in vivo at 100 mg/kg [3, 11]: 65%
inhibition in vivo at 100 mg/kg [3, 12]: 71%
Ki [4]: 21 nM
EC50 [5]: 2900 nM
EC50 [6]: 12 nM

CC1(C)CCC(CN2CCN(c3ccc(C(=O)NS(=O)(=O)c4cnc(OCC5(F)CCOCC5)c(Cl)c4)c(Oc4cccc5[nH]ncc45)c3)CC2)=C(c2ccc(Cl)cc2)C1 [Compound 12, N-({5-chloro-6-[(4-fluorotetrahydro-2H-pyran-4-yl)methoxy]pyridin-3-yl}sulfonyl)-4-(4-{[2-(4-chlorophenyl)-4,4-dimethylcyclohex-1-en-1-yl]methyl}piperazin-1-yl)-2-(1H-indazol-4-yloxy)benzamide]
Ki [7]: < 0.01 nM
EC50 [1]: 17 nM
EC50 [2]: 59 nM
Day 1 Lymphocytes ([3]; 1 oral dose of 100 mg/kg): 1.44 ×10^6
Day 4 lymphocytes ([3]; 4 oral doses of 100 mg/kg): 2.21 ×10^6
inhibition in vivo at 100 mg/kg [3, 11]: 78%
inhibition in vivo at 100 mg/kg [3, 12]: 74%
Ki [4]: 23 nM
EC50 [5]: 2750 nM
EC50 [6]: 2.3 nM

CC1(C)CCC(CN2CCN(c3ccc(C(=O)NS(=O)(=O)c4ccc(OCC5(F)CCN(C6COC6)CC5)c(Cl)c4)c(Oc4cnc5[nH]ccc5c4)c3)CC2)=C(c2ccc(Cl)cc2)C1 [Compound 11, N-[(3-chloro-4-{[4-fluoro-1-(oxetan-3-yl)piperidin-4-yl]methoxy}phenyl)sulfonyl]-4-(4-{[2-(4-chlorophenyl)-4,4-dimethylcyclohex-1-en-1-yl]methyl}piperazin-1-yl)-2-(1H-pyrrolo[2,3-b]pyridin-5-yloxy)benzamide]
EC50 [1]: 12 nM
Day 1 Lymphocytes ([3]; 1 oral dose of 100 mg/kg): 1.76 ×10^6
Day 4 lymphocytes ([3]; 4 oral doses of 100 mg/kg): 1.71 ×10^6
inhibition in vivo at 100 mg/kg [3, 11]: 73%
inhibition in vivo at 100 mg/kg [3, 12]: 80%
Ki [4]: 12 nM
EC50 [5]: 2990 nM

CC1(C)CCC(CN2CCN(c3ccc(C(=O)NS(=O)(=O)c4ccc(OCC5(F)CCOCC5)c([N+](=O)[O-])c4)c(Oc4cnc5[nH]ccc5c4)c3)CC2)=C(c2ccc(Cl)cc2)C1 [Compound 16, 4-(4-{[2-(4-chlorophenyl)-4,4-dimethylcyclohex-1-en-1-yl]methyl}piperazin-1-yl)-N-({4-[(4-fluorotetrahydro-2H-pyran-4-yl)methoxy]-3-nitrophenyl}sulfonyl)-2-(1H-pyrrolo[2,3-b]pyridin-5-yloxy)benzamide]
EC50 [1]: 2.1 nM
EC50 [2]: 31 nM
Day 1 Lymphocytes ([3]; 1 oral dose of 100 mg/kg): 1.77 ×10^6
Day 4 lymphocytes ([3]; 4 oral doses of 100 mg/kg): 1.99 ×10^6
inhibition in vivo at 100 mg/kg [3, 11]: 73%
inhibition in vivo at 100 mg/kg [3, 12]: 77%
Ki [4]: 15 nM
EC50 [5]: 3930 nM
EC50 [6]: 0.7 nM

CC1(C)CCC(CN2CCN(c3ccc(C(=O)NS(=O)(=O)c4ccc(OCC5(F)CCOCC5)c(Cl)c4)c(Oc4cnc5[nH]ccc5c4)c3)CC2)=C(c2ccc(Cl)cc2)C1 [Compound 15, N-({3-chloro-4-[(4-fluorotetrahydro-2H-pyran-4-yl)methoxy]phenyl}sulfonyl)-4-(4-{[2-(4-chlorophenyl)-4,4-dimethylcyclohex-1-en-1-yl]methyl}piperazin-1-yl)-2-(1H-pyrrolo[2,3-b]pyridin-5-yloxy)benzamide]
EC50 [1]: 35 nM
Day 1 Lymphocytes ([3]; 1 oral dose of 100 mg/kg): 1.85 ×10^6
Day 4 lymphocytes ([3]; 4 oral doses of 100 mg/kg): 1.65 ×10^6
inhibition in vivo at 100 mg/kg [3, 11]: 72%
inhibition in vivo at 100 mg/kg [3, 12]: 81%
Ki [4]: 61 nM
EC50 [5]: > 5000 nM

COc1c(C)c2c(c(O)c1C/C=C(\C)CCC(=O)OCCN1CCOCC1)C(=O)OC2 [MMF, mycophenolate mofetil, reference compound]
% Mice with PU < 300 mg/dL [9]: 94* %
% Survival [9]: 100* %
% Mice with PU < 300 mg/dL [10]: 40* %
% Survival [10]: 72* %

CO[C@H]1CC[C@H](CNc2ccc(S(=O)(=O)NC(=O)c3ccc(N4CCN(CC5=C(c6ccc(Cl)cc6)CC(C)(C)CC5)CC4)cc3Oc3cnc4[nH]ccc4c3)cc2[N+](=O)[O-])CC1 [Compound 5, Trans-4-(4-{[2-(4-chlorophenyl)-4,4-dimethylcyclohex-1-en-1-yl]methyl}piperazin-1-yl)-N-[(4-{[(4-methoxycyclohexyl)methyl]amino}-3-nitrophenyl)sulfonyl]-2-(1H-pyrrolo[2,3-b]pyridin-5-yloxy)benzamide]
Ki [7]: < 0.01 nM
EC50 [1]: 8 nM
EC50 [2]: 67 nM
Day 1 Lymphocytes ([3]; 1 oral dose of 100 mg/kg): 0.98 ×10^6
Day 4 lymphocytes ([3]; 4 oral doses of 100 mg/kg): 1.02 ×10^6
inhibition in vivo at 100 mg/kg [3, 11]: 84%
inhibition in vivo at 100 mg/kg [3, 12]: 84%
Ki [4]: 126 nM
EC50 [5]: > 5000 nM
EC50 [6]: 1.2 nM
